# Changes are numbered by the printed parent chain.
# Columns and labels:
# Assay in all cases: Saturation binding of ^125I-HEAT
# [1] = molecular target: T1, human α1A-AR D106A variant (Homo sapiens, UniProt P35348, D106A)
# T1 construct: expressed in transfected cells; host or cells: COS-7, transient (calcium phosphate)
# T1 sequence (P35348 1-466 D106A): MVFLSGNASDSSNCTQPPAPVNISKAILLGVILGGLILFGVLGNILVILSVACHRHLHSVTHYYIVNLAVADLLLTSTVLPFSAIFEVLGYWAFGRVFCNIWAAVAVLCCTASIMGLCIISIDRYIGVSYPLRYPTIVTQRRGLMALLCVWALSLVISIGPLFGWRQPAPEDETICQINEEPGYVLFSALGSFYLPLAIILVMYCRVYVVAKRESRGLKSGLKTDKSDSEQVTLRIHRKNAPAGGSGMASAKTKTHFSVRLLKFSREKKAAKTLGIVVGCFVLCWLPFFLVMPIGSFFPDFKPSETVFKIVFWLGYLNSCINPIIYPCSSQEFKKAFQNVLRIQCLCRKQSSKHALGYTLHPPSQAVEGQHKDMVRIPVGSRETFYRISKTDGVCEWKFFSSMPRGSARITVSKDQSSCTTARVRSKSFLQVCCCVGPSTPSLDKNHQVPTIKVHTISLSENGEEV
# From the text: (§1) α1A-AR cDNA inserted in the prK5 vector was kindly provided by Michael Brownstein (Craig Venter Institute, Rockville, MD). Point mutations were introduced into the α1A-AR gene by sense and antisense primers (Sigma-Aldrich, St Quentin-Fallavier, France) containing the desired changes, using the QuikChange Site-Directed Mutagenesis kit. The incorporation of each mutation was verified by DNA sequencing.
# (§2) CHO cells stably expressing α1-ARs were kindly provided by Dr. Hervé Paris (INSERM U858, Toulouse, France) and were grown in a 50∶50 Dulbecco's Modified Eagle's Medium (DMEM)/Ham's F12 medium supplemented with 10% (v/v) foetal bovine serum (FBS), glutamine (2 mM), penicillin (100 units/ml) and streptomycin (100 µg/ml) at 37°C with 5% CO2. COS-7 cells were grown at 37°C under 5% CO2 in Dulbecco's modified Eagle's medium containing 10% fetal calf serum, 1% penicillin and 1% glutamine (Sigma-Aldrich, St Quentin-Fallavier, France). At 80% confluence, the cells were transfected using a calcium phosphate precipitation method for transient expression of the genetic construct. After 48 h incubation at 37°C, cells were harvested and the membranes were prepared as follow. Cells were washed with ice-cold phosphate buffer and centrifuged at 1700 g for 10 min (4°C). The pellet was suspended in ice-cold buffer (1 mM EDTA, 25 mM sodium phosphate, and 5 mM MgCl2, pH 7.4) and homogenized using an Potter-Elvehjem homogenizer (Fisher Scientific Labosi, Elancourt, France). The homogenate was centrifuged at 1700 g for 15 min (4°C). The sediment was resuspended in buffer, homogenized, and centrifuged at 1700 g for 15 min (4°C). The combined supernatants were centrifuged at 35,000 g for 30 min (4°C), and the pellet was suspended in the same buffer (0.1 ml/dish). […] Cells were grown in a 50∶50 Dulbecco's Modified Eagle's Medium (DMEM)/Ham's F12 medium supplemented with 10% (v/v) foetal bovine serum (FBS), glutamine (2 mM), penicillin (100 units/ml) and streptomycin (100 µg/ml) at 37°C with 5% CO2. Media was changed every 2–3 days and cells were passaged when confluent with 0.05% trypsin and 0.02% EDTA.
# (§3) Binding experiments were performed in a 100 µL reaction mix at room temperature in buffer composed of 50 mM Tris-HCl, pH 7.4, 10 mM MgCl2, 1 g/L BSA. Reactions were stopped by filtration through 96 GF/C filter plates pre-incubated with 0.5% polyethylenimine.
# (§4) Binding data were analyzed by nonlinear regression using the KaleidaGraph 4.0 software (Synergy software, Reading, PA). pKD values and Bmax (number of binding sites) were determined by applying a nonlinear regression to data obtained with saturation binding assays. The nonlinear regression used was BS = (Bmax*A)/KD+A, where BS is the specific binding, Bmax the number of binding sites, A the concentration of radioligand, and KD the dissociation constant of the radioligand. Data resulting from competition binding assays were analyzed using the Hill equation for IC50 and curve slope estimations. […] The linear curves were analyzed with IC50 = Ki+(L/KD)*Ki. Dissociation kinetics were analyzed using a simple equation of exponential decay BS * exp (-Koff*t), where BS is the specific binding at time zero and Koff is the dissociation rate constant. Results are expressed as mean ± s.e. mean from n independent experiments. One-way Anova test was used to compare values. A p<0.05 was accepted for statistical significance.
# [2] = molecular target: T2, human α1A-AR F193A variant (Homo sapiens, UniProt P35348, F193A)
# T2 construct: expressed in transfected cells; host or cells: COS-7, transient (calcium phosphate)
# T2 sequence (P35348 1-466 F193A): T1 sequence (P35348 1-466 D106A) with A106D, F193A
# From the text: as §1, §2, §3, §4
# [3] = molecular target: T3, human α1A-AR WT (Homo sapiens, UniProt P35348)
# T3 construct: expressed in transfected cells; host or cells: COS-7, transient (calcium phosphate)
# T3 sequence (P35348 1-466): T1 sequence (P35348 1-466 D106A) with A106D
# From the text: as §1, §2, §3, §4
smiles,measurement,setting,value
O=C1c2ccccc2CCC1CNCCc1ccc(O)c([125I])c1 (centres unmarked) [125I-HEAT],^125I-HEAT Ratio (loss of affinity relative to WT),[1]; D106A,1.7
same,^125I-HEAT pKd,"[1]; D106A (3.32), saturation binding, n = 3–6",9.82±0.11
same,^125I-HEAT Ratio (loss of affinity relative to WT),[2],2.8
same,^125I-HEAT Ratio (affinity relative to WT),[3],1
same,^125I-HEAT pKd,"[3]; saturation binding, n = 3–6",10.05±0.14

# From PMC3723878 (PLoS ONE, 2013)
